Assays:
[1] = target: T1, Cytochrome P450 2B6 (Homo sapiens, UniProt P20813); assay: Inhibition of human recombinant CYP2B6 expressed in baculovirus-infected insect microsomes; assay type: ADME, Microsome
T1 sequence (P20813 whole entry): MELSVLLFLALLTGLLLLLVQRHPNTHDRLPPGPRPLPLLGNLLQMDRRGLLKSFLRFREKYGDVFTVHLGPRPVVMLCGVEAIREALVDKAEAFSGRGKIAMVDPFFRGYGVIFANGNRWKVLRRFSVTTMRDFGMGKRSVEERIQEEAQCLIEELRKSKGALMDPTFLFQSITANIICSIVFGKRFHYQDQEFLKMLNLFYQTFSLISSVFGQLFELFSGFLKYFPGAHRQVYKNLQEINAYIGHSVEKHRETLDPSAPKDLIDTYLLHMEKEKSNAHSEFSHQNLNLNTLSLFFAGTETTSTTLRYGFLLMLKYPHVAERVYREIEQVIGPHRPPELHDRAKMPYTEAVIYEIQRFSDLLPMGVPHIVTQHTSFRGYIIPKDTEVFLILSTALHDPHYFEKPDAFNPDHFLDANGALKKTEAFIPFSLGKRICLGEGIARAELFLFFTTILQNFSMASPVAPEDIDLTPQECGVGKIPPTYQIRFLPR

[2] = target: Cytochrome P450 2D6 (Homo sapiens, UniProt P10635); assay: Inhibition of human recombinant CYP2D6 expressed in baculovirus-infected insect microsomes; assay type: ADME, Microsome
[3] = target: Cytochrome P450 3A4 (Homo sapiens, UniProt P08684); assay: Inhibition of human recombinant CYP3A4 expressed in baculovirus-infected insect microsomes; assay type: ADME, Microsome
[4] = Protein binding in rat plasma at 3 uM after 1 hr; assay type: ADME, cell-free; conditions: read-out: PPB (converted)
[5] = Protein binding in human plasma at 3 uM after 1 hr; assay type: ADME, cell-free; conditions: read-out: PPB (converted)
[6] = Terminal half life in Wistar rat at 5 mg/kg, po by cassette dosing; assay type: ADME, organism-based; parameters: dose 5 mg/kg, route oral; conditions: in vivo, read-out: beta t1/2 (converted)
[7] = Tmax in Wistar rat at 5 mg/kg, po by cassette dosing; assay type: ADME, organism-based; parameters: dose 5 mg/kg, route oral; conditions: in vivo
[8] = Cmax in Wistar rat at 5 mg/kg, po by cassette dosing; assay type: ADME, organism-based; parameters: dose 5 mg/kg, route oral; conditions: in vivo
[9] = AUC (0 to infinity) in Wistar rat at 5 mg/kg, po by cassette dosing; assay type: ADME, organism-based; parameters: time infinity, dose 5 mg/kg, route oral; conditions: plasma
[10] = tested on: U-937; assay: Cytotoxicity against human U937 cells assessed as reduction of survival fraction at >100 uM by fluorimetric alamar blue assay; assay type: cell-based
[11] = Terminal half life in Wistar rat at 25 mg/kg, po; assay type: ADME, organism-based; parameters: dose 25 mg/kg, route oral; conditions: in vivo, read-out: beta t1/2 (converted)
[12] = Tmax in Wistar rat at 25 mg/kg, po; assay type: ADME, organism-based; parameters: dose 25 mg/kg, route oral; conditions: in vivo
[13] = Cmax in Wistar rat at 25 mg/kg, po; assay type: ADME, organism-based; parameters: dose 25 mg/kg, route oral; conditions: in vivo
[14] = AUC (0 to infinity) in Wistar rat at 25 mg/kg, po; assay type: ADME, organism-based; parameters: time infinity, dose 25 mg/kg, route oral; conditions: plasma
[15] = tested on: Rattus norvegicus; assay: Plasma concentration in Wistar rat at 25 mg/kg, po after 0.5 to 8 hrs; assay type: ADME, organism-based; parameters: dose 25 mg/kg, route oral; conditions: in vivo
[16] = tested on: Rattus norvegicus; assay: Reduction of ACTH-induced aldosterone level in Wistar rat plasma at 20 mg/kg, iv administered 16 hrs after ACTH challenge after 0.5 to 3 hrs; parameters: scale not given: the % may be the effect or the level left

Sequence of Cytochrome P450 2D6 (P10635 whole entry): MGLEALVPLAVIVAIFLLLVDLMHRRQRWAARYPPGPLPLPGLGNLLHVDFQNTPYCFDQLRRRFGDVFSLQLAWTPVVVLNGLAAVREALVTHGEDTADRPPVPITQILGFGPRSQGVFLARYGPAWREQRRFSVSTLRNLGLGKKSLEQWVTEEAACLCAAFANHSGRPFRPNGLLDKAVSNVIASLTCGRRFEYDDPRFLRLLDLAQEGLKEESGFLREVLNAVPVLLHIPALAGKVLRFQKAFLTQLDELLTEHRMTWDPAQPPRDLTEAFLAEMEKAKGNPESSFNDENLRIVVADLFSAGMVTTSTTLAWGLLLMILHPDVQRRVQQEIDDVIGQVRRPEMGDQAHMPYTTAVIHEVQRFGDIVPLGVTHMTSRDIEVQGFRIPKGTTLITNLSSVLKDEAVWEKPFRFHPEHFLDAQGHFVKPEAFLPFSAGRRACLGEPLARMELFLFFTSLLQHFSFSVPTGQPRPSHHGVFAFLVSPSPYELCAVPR
Sequence of Cytochrome P450 3A4 (P08684 whole entry): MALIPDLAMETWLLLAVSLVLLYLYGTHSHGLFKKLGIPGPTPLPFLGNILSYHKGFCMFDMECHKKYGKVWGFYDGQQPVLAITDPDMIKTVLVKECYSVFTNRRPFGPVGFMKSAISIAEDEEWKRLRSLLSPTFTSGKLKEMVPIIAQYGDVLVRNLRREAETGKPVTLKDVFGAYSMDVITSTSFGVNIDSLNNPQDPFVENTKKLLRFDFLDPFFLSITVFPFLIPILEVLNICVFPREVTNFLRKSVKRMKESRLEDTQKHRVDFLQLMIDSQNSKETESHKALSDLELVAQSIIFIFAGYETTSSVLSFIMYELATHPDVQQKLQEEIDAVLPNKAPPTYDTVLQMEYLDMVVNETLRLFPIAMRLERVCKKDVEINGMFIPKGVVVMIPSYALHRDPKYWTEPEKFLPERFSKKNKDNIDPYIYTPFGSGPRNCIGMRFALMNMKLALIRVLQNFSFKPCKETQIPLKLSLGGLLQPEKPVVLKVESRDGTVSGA

Row | IC50 [1] [µM] | IC50 ([2]; read-out: IC50) [µM] | IC50 [3] [µM] | fraction unbound at 1 h, 3 µM [4] | fraction unbound at 1 h, 3 µM [5] | half-life [6] [h] | Tmax [7] [h] | Cmax [8] [ng/mL] | AUC(0-inf) [9] [ng·h/mL] | half-life [11] [h] | Tmax [12] [h] | Cmax [13] [ng/mL] | AUC(0-inf) [14] [ng·h/mL] | Cp [15] [ng/mL] | IC50 [2] [µM] | Structure (SMILES) | Activity [10] | Activity [16] [%]
1 | < 50 | 171 | 6.21 | 0.75 | 0.76 | 3.5 | 4 | 104 | 727 |  |  |  |  |  |  | O=C1CCc2cc(-c3cccnc3)ccc2C1 | Toxic | 
2 | < 100 | < 50 | < 50 |  |  |  |  |  |  | 2.9 | 2 | 134 | 1660 | 90 |  | O=C1CCc2cc(-c3cncc4ccccc34)ccc2N1 |  | 36
3 | < 50 |  | 3.8 |  |  | 3.9 | 4 | 35 | 212 |  |  |  |  |  | < 200 | COc1cncc(-c2ccc3c(c2)CCC(=O)C3)c1 |  | 
